# Measured values from paper PMC12703733, “Probing Guanidino Pendant or Bridged Groups in Cyclic Antimicrobial Peptides Derived from Temporin L: A Strategy to Improve Efficacy against Gram-Negative Bacteria” (Journal of Medicinal Chemistry, 2025).
# Like-named read-outs stand apart in the source and are kept apart here. Bridge positions count the residues as written; N and C are the ends. Square brackets hold non-standard residues; d marks the D form. Peptide text beside a SMILES is read from it.
# How the values were obtained:
# all bacteria tested = assay: MIC panel, geometric mean over all strains; assay type: cell-based; conditions: geometric mean of the MICs against all bacteria tested
# Method: The antimicrobial efficacy of the TLcyc analogues was assessed against a representative panel of Gram-positive and Gram-negative bacterial strains, by determining their minimal inhibitory concentrations (MIC), as summarized in Table . To provide an integrated measure of antimicrobial potency, we calculated the geometric mean (GM) of MIC values across all strains (GMall), as well as separately for Gram-positive (GMGram+) and Gram-negative (GMGram–) bacteria.
# Bacterial strains used in this study were the Gram-positive S. aureus ATCC 25923, S. epidermidis ATCC 12228, B. megaterium BM11, S. agalactiae ATCC 27591, E. faecalis ATCC 29212 and the Gram-negative E. coli ATCC 25922, P. aeruginosa ATCC 27853, A. baumannii ATCC 19606, E. coli D21 and P. aeruginosa PAO1. […] Bacterial cells in the mid log phase were diluted in Muller Hinton (MH) at a concentration of 2 × 10^6 cell/mL. Aliquots of 50 μL of this bacterial suspension were added to 50 μL of MH containing serial 2-fold dilutions of the peptides (from 100 to 0.19 μM) in the wells a 96-well plate. Ciprofloxacin was used as antibiotic control. The plate was then incubated at 37 °C. MICs were obtained from three identical readings of four independent experiments.
# [1] = test system: human keratinocytes (HaCaT cells); assay type: cell-based
# Method in brief: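 Cells were plated at about 4 × 10^4/well in 2% FBS, then exposed to peptide at 100–3.12 μM in serum-free medium for 2 h or 24 h. Viability was measured by MTT reduction (0.5 mg/mL, 4 h, absorbance 570 nm) relative to untreated cells, as the mean ± SEM of three experiments.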
# in vitro = in vitro ADME; conditions: isolated enzyme chymotrypsin, pH 7.8
# Method: Peptide stability was evaluated by modifying previously described procedures. , The assays were performed in human serum and in the presence of proteolytic enzymes such as trypsin and chymotrypsin. For human serum stability, 2 mM peptide stock solutions were prepared in water and mixed with human serum (from male AB plasma, USA origin, sterile-filtered, Merck/Sigma-Aldrich, USA) to obtain a final concentration of 200 μM [human plasma/stock solution (9:1, v/v)]. The mixtures were incubated at 37 ± 1 °C, and 50 μL aliquots were taken at predetermined time intervals (0, 1, 2, 4, 8, and 24 h). Protease activity was quenched by adding 100 μL of acetonitrile (MeCN). The resulting cloudy suspensions were cooled to 4 °C for 30 min and centrifugated at 12,000 rpm for 10 min to remove the serum proteins. Then, the supernatants were analyzed by analytical HPLC (Shimadzu Nexera Liquid Chromatograph LC-30AD) which was equipped with a Phenomenex Kinetex reversed-phase column (C18, 5 μm, 100 Å, 150 mm × 4.6 mm) with a flow rate of 1 mL/min using a gradient of MeCN (0.1% TFA) in water (0.1% TFA), from 10 to 70% over 15 min, and UV detection at 220 nm. For enzyme stability, each peptide peptide (200 μM) was incubated with trypsin (0.5 μM) in PBS 1× (pH 7.2) or with chymotrypsin (0.005 μM) in Tris–HCl (100 mM, pH 7.8). Samples (50 μL) were collected at 0, 1, 2, 4, and 24 h, quenched with 0.5% TFA in water, and analyzed by HPLC under chromatographic conditions as described above. All experiments were conducted in triplicate. The percentage of intact peptides at each time point was determined by integrating the corresponding HPLC peak areas.
# P. aeruginosa ATCC 27853 = assay type: cell-based
# Method: The ability of peptides to alter the bacterial membrane permeability of planktonic cells of S. aureus ATCC 25923 and P. aeruginosa ATCC 27853 was determined by the Sytox Green assay. Approximately 1 × 10^6 cells in 100 μL of PBS were combined with 1 μM Sytox Green in the dark for 5 min. The fluorescence intensity was monitored using a microplate reader (Infinite M200, Tecan), with excitation and emission at λ = 485 and 535 nm, respectively. Peptides were added (time = 0) at three different concentrations (i.e., 3.12, 6.25, and 12.5 μM). Increase in the fluorescence intensity is due to the binding of the dye to intracellular nucleic acids. Controls consisted of cells that were not exposed to the peptides. The values correspond to one representative experiment out of three independent experiments.
compound,measurement,setting,value
"CC[C@H](C)[C@H](NC(=O)[C@H](CCCNC(=N)N)NC(=O)[C@H]1CCC(=O)NCCCC[C@H](NC(=O)[C@H](Cc2ccccc2)NC(=O)[C@H](Cc2c[nH]c3ccccc23)NC(=O)[C@@H]2CCCN2C(=O)[C@@H](NC(=O)[C@@H](N)Cc2ccccc2)C(C)C)C(=O)N[C@@H](CCCCN)C(=O)N[C@@H](Cc2ccccc2)C(=O)N[C@H](CC(C)C)C(=O)N1)C(=O)N[C@@H](CC(C)C)C(N)=O [Peptide 2, FVPWF[KKFle]RIL] (H-FVPWFKKF[dL][dE]RIL-NH2; lactam 6-10)",geometric mean GMall,all bacteria tested,8.81 µM
same,Cell viability (%),[1]; 3.12 µM,101 ± 2%
same,Cell viability (%),[1]; 6.25 µM,92 ± 2%
same,Cell viability (%),[1]; 12.5 µM,92 ± 1%
same,Cell viability (%),[1]; 25 µM,94 ± 1%
same,CC50,[1]; 24 h,56.4 µM
same,"remaining at 4 h, 200 μM",in vitro,~20%
same,"membrane permeabilization, Sytox Green fluorescence (in words)",P. aeruginosa ATCC 27853,lower intensity
